Test system: HSV-1
Assay: HSV-1 infection of Vero 76 cells, viral DNA detected by hybridization capture (chemiluminescence)
Type: cell-based
Details: Human alphaherpesvirus 1; HSV-1 in Vero 76 cells, MOI=0.001, compounds incubated 40–48 hours at 37° C.; read-out: IC50
Procedure, shortened: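 Vero 76 cells infected 45 min at 37° C with HSV-1 (MOI=0.001), seeded at 5×10^4 cells/well in 2% FBS medium with compounds, incubated 40–48 h, then lysed in 0.2 N NaOH/1% detergent. Viral DNA captured by UL13 plasmid, hybridized overnight at 42° C with digoxigenin-labeled UL15 probe, detected by anti-digoxigenin-HRP chemiluminescence.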

SMILES	IC50 [nM]
COc1ccc(-c2nn3c(NCCCCNC(=O)NS(=O)(=O)c4ccc(C)cc4)cccc3c2-c2ccnc(NC3CCCC3)n2)cc1 [Example 87, N-{[(4-{[3-[2-(Cyclopentylamino)pyrimidin-4-yl]-2-(4-methoxyphenyl)pyrazolo[1,5-a]pyridin-7-yl]amino}butyl)amino]carbonyl}-4-methylbenzenesulfonamide]	1000
O=C(O)c1cccc(-c2nn3c(NC4CCCC4)cccc3c2-c2ccnc(NC3CCCC3)n2)c1 [Example 41, 3-{7-(Cyclopentylamino)-3-[2-(cyclopentylamino)-4-pyrimidinyl]pyrazolo-[1,5-a]pyridin-2-yl}benzoic acid]	3500
c1cc(-c2cccs2)cc(-c2nn3c(NC4CCCC4)cccc3c2-c2ccnc(NC3CCCC3)n2)c1 [Example 33, N-Cyclopentyl-3-[2-(cyclopentylamino)-4-pyrimidinyl]-2-[3-(2-thienyl)-phenyl]pyrazolo[1,5-a]pyridin-7-amine]	800
CC(=O)Nc1cccc(-c2nn3c(NC4CCCC4)cccc3c2-c2ccnc(NC3CCCC3)n2)c1 [Example 35, N-(3-{7-(Cyclopentylamino)-3-[2-(cyclopentylamino)-4-pyrimidinyl]pyrazolo[1,5-a]pyridin-2-yl}phenyl)acetamide]	2000
Nc1nccc(-c2c(-c3cccc(Br)c3)nn3c(N4CCCC4)cccc23)n1 [Example 28, 4-[2-(3-Bromophenyl)-7-(1-pyrrolidinyl)pyrazolo[1,5-a]pyridin-3-yl]-2-pyrimidinamine]	5000
C=C(C)c1ccc(-c2nn3c(NCCCC)cccc3c2-c2ccnc(NCCCC)n2)cc1 [Example 18, N-Butyl-3-[2-(butylamino)-4-pyrimidinyl]-2-(4-isopropenylphenyl)-pyrazolo[1,5-a]pyridin-7-amine]	9000
CCCCNc1nccc(-c2c(-c3ccc(NCc4ccccc4)cc3)nn3c(NCCCC)cccc23)n1 [Example 45, 2-[4-(Benzylamino)phenyl]-N-butyl-3-[2-(butylamino)-4-pyrimidinyl]-pyrazolo[1,5-a]pyridin-7-amine]	22000
CC(C)COc1ccc(-c2nn3c(NC4CCCC4)cccc3c2-c2ccnc(NC3CCCC3)n2)cc1 [Example 10, N-Cyclopentyl-3-[2-(cyclopentylamino)-4-pyrimidinyl]-2-(4-isobutoxyphenyl)pyrazolo [1,5-a]pyridin-7-amine]	900
Oc1ccc(-c2nn3c(N4CCCC4)cccc3c2-c2ccnc(NC3CCCC3)n2)cc1 [Example 5, 4-[3-[2-(Cyclopentylamino)-4-pyrimidinyl]-7-(1-pyrrolidinyl)pyrazolo[1,5-a]pyridin-2-yl]phenol]	2000
COc1ccc(-c2nn3c(NC4CC4)cccc3c2-c2ccnc(NC3CC3)n2)cc1 [Example 66, N-Cyclopropyl-3-[2-(cyclopropylamino)-4-pyrimidinyl]-2-(4-methoxyphenyl)pyrazolo[1,5-a]pyridin-7-amine]	1300
Nc1nccc(-c2c(-c3cccc(Br)c3)nn3c(NC4CCCC4)cccc23)n1 [Example 27, N-[3-(2-Amino-4-pyrimidinyl)-2-(3-bromophenyl)pyrazolo[1,5-a]pyridin-7-yl]-N-cyclopentylamine]	1500
COc1ccc(-c2nn3c(NCCCCNC(=N)N)cccc3c2-c2ccnc(NC3CCCC3)n2)cc1 [Example 85, N-(4-{[3-[2-(Cyclopentylamino)pyrimidin-4-yl]-2-(4-methoxyphenyl)pyrazolo[1,5-a]pyridin-7-yl]amino}butyl)guanidine]	4000
c1cc(NC2CC2)n2nc(-c3ccc(OCC4CC4)cc3)c(-c3ccnc(NC4CC4)n3)c2c1 [Example 72, N-Cyclopropyl-3-[2-(cyclopropylamino)-4-pyrimidinyl]-2-[4-(cyclopropylmethoxy)phenyl]pyrazolo[1,5-a]pyridin-7-amine]	1400
CCCCNc1nccc(-c2c(-c3ccc(-c4ccccc4)cc3)nn3c(NCCCC)cccc23)n1 [Example 15, 2-[1,1′-Biphenyl]-4-yl-N-butyl-3-[2-(butylamino)-4-pyrimidinyl]pyrazolo-[1,5-a]pyridin-7-amine]	1000

Molecules with a lower IC50, results first:

IC50 [nM]	SMILES
700	Fc1cccc(-c2nn3c(NC4CCCC4)cccc3c2-c2ccnc(NC3CC3)n2)c1 [Example 102, N-Cyclopentyl-3-[2-(cyclopropylamino)-4-pyrimidinyl]-2-(3-fluorophenyl)pyrazolo[1,5-a]pyridin-7-amine]
600	c1cc(NC2CC2)n2nc(-c3ccc(OCC4CC4)cc3)c(-c3ccnc(NC4CCCC4)n3)c2c1 [Example 70, 3-[2-(Cyclopentylamino)-4-pyrimidinyl]-N-cyclopropyl-2-[4-(cyclopropylmethoxy)phenyl]pyrazolo[1,5-a]pyridin-7-amine]
600	COc1ccc(-c2nn3c(NCCCCNS(C)(=O)=O)cccc3c2-c2ccnc(NC3CCCC3)n2)cc1 [Example 86, N-(4-{[3-[2-(Cyclopentylamino)pyrimidin-4-yl]-2-(4-methoxyphenyl)pyrazolo[1,5-a]pyridin-7-yl]amino}butyl)methanesulfonamide]
600	Brc1cccc(-c2nn3c(N4CCCC4)cccc3c2-c2ccnc(NC3CCCC3)n2)c1 [Example 26, 4-[2-(3-Bromophenyl)-7-(1-pyrrolidinyl)pyrazolo[1,5-a]pyridin-3-yl]-N-cyclopentyl-2-pyrimidinamine]
500	Clc1ccc(-c2nn3c(NC4CCCC4)cccc3c2-c2ccnc(NC3CCCC3)n2)cc1Br [Example 43, 2-(3-Bromo-4-chlorophenyl)-N-cyclopentyl-3-[2-(cyclopentylamino)-4-pyrimidinyl]pyrazolo[1,5-a]pyridin-7-amine]
500	Clc1cccc(-c2nn3c(NC4CC4)cccc3c2-c2ccnc(NC3CC3)n2)c1 [Example 99, 2-(3-Chlorophenyl)-N-cyclopropyl-3-[2-(cyclopropylamino)-4-pyrimidinyl]pyrazolo[1,5-a]pyridin-7-amine]
500	C=CCOc1ccc(-c2nn3c(NC4CCCC4)cccc3c2-c2ccnc(NC3CC3)n2)cc1 [Example 71, 2-[4-(Allyloxy)phenyl]-N-cyclopentyl-3-[2-(cyclopropylamino)-4-pyrimidinyl]pyrazolo[1,5-a]pyridin-7-amine]
300	Oc1ccc(-c2nn3c(NC4CC4)cccc3c2-c2ccnc(NC3CCCC3)n2)cc1 [Example 67, 4-[3-[2-(Cyclopentylamino)-4-pyrimidinyl]-7-(cyclopropylamino)pyrazolo[1,5-a]pyridin-2-yl]phenol]
300	COc1ccc(-c2nn3c(NC4CCCC4)cccc3c2-c2ccnc(NC3CCCC3)n2)cc1 [Example 1, N-Cyclopentyl-3-[2-(cyclopentylamino)-4-pyrimidinyl]-2-(4-methoxyphenyl)-pyrazolo[1,5-a]pyridin-7-amine]
200	COCCNc1cccc2c(-c3ccnc(NC4CCCC4)n3)c(-c3cccc(Cl)c3)nn12 [Example 104, 2-(3-Chlorophenyl)-3-[2-(cyclopentylamino)-4-pyrimidinyl]-N-(2-methoxyethyl)pyrazolo[1,5-a]pyridin-7-amine]

Reference: US7153855B2, “Pyrazolopyridinyl pyrimidine therapeutic compounds” (SmithKline Beecham Corporation, priority 2001, dated 2006)
